Data on 25 molecules can be found in patent US20050004167A1, “Branched chain amino acid-dependent aminotransferase inhibitors and their use in the treatment of neurodegenerative diseases” (WARNER-LAMBERT COMPANY LLC, priority 2001, published 2005).

In data set [1] the target is T1, human Branched Chain Amino Acid Aminotransferase cytosolic form (hBCATc) (Homo sapiens, UniProt P54687).
T1 construct: made in house; host or cells: E. coli BL21(DE3)
T1 sequence (P54687 1-386): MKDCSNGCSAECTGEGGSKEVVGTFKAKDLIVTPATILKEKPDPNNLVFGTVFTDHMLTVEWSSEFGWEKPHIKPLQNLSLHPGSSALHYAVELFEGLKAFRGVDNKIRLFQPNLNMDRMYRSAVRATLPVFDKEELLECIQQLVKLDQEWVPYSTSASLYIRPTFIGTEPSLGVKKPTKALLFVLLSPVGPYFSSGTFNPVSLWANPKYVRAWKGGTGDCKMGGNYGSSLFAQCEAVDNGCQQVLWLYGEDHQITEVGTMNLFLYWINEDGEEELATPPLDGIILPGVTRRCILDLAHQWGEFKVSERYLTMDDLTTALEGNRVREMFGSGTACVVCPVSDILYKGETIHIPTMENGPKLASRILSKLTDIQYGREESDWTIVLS
In words: In vitro coupled enzyme assay (glutamate dehydrogenase, NADH formation), human BCATc. The format is biochemical. The conditions noted are these: recombinant human BCATc, 37° C., 25 mM phosphate buffer pH 7.8; several values in a cell = repeat determinations; read-out: RhBCATc. Put shortly:
(§1)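 At 37 °C in 25 mM phosphate pH 7.8 with 2 mM DTT, 1.25 μg His-tag-purified E. coli-expressed BCAT transaminated 750 μM L-leucine with 500 μM α-ketoglutarate and 10 μM PLP. Glutamate was coupled via glutamate dehydrogenase (1 mM NAD+, 4 mM ADP) to NADH formation at 340 nm. Compounds were added in DMSO up to 5% v/v.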

The next data set deals with T2, rat BCAT cytosolic form (Rattus norvegicus, UniProt P54690).
T2 construct: made in house; host or cells: E. coli BL21(DE3)
T2 sequence (P54690 1-411): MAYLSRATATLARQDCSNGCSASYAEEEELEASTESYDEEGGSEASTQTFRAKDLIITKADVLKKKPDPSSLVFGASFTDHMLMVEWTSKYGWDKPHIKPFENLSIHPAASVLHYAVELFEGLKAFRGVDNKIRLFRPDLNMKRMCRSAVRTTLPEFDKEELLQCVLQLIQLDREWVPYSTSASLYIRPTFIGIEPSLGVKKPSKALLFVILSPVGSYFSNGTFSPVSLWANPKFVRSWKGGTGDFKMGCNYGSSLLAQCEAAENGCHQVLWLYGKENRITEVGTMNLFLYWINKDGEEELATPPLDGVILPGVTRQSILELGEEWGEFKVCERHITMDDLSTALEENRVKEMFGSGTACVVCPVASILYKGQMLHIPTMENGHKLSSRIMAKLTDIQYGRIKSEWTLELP
Put plainly: In vitro coupled enzyme assay (glutamate dehydrogenase, NADH formation), rat BCATc. As to conditions: recombinant rat BCATc, 37° C., 25 mM phosphate buffer pH 7.8; several values in a cell = repeat determinations; read-out: RrBCATc. The format is biochemical. A digest of the protocol: as §1

The structures appear in SMILES notation. Where “and” joins values, the source holds several entries; their conditions need not be identical. Identical values can stand only once. A value given as a limit tells only on which side of the number the result lay.

What is called melting point is the temperature, or range, at which the solid turns liquid. In turn, `N#Cc1cccc(S(=O)(=O)NNC(=O)c2ccc3oc4ccccc4c3c2)c1` [Example 26, 2-Dibenzofurancarboxylic acid 2-[(3-cyanophenyl)sulfonyl]hydrazide] returned a melting point of 234 to 236 °C. The IC50 in data set [1] was determined as 138 µM. In addition, the IC50 at rat BCAT cytosolic form is 15.2 µM and 6.9 µM.

For `N#Cc1cccc(S(=O)(=O)NNC(=O)c2cc3cc(Cl)ccc3o2)c1` [Example 27, 2-Benzofurancarboxylic acid, 5-chloro-, 2-[(3-cyanophenyl)sulfonyl]hydrazide], the melting point lay within 208.5 to 210 °C. Besides, in data set [1], the IC50 worked out at 171 µM. Besides, on rat BCAT cytosolic form, the IC50 was 45.2 µM.

Molecule `O=C(NNS(=O)(=O)c1ccc(F)cc1Cl)c1cc2cc(Cl)ccc2o1` [Example 30, 2-Benzofurancarboxylic acid, 5-chloro-, 2-[(2-chloro-4-fluorophenyl)sulfonyl]-hydrazide] registered a melting point of 204.6 to 206.2 °C. The IC50 in data set [1] stood at 25 µM. The IC50 on rat BCAT cytosolic form was found to be 5.7 µM.

Molecule `O=C(NNS(=O)(=O)c1cc(Cl)cc(Cl)c1)c1cc2cc(Cl)ccc2o1` [Example 31, 2-Benzofurancarboxylic acid, 5-chloro-, 2-[(3,5-dichlorophenyl)sulfonyl]-hydrazide] had a melting point of 242.5 to 243.3 °C. In data set [1], the IC50 was 2.6 µM and 4.3 µM. In addition, the IC50 on rat BCAT cytosolic form was determined as 0.81 µM.

With `O=C(NNS(=O)(=O)c1cc(C(F)(F)F)cc(C(F)(F)F)c1)c1ccc2oc3ccccc3c2c1` [Example 32, 2-Dibenzofurancarboxylic acid, 2-[[3,5-bis(trifluoromethyl)phenyl]sulfonyl]-hydrazide], the melting point was 244.7 to 245.5 °C. In addition, the IC50 in data set [1] is > 100 µM. In addition, on rat BCAT cytosolic form, the IC50 was > 100 µM.

`O=C(NNS(=O)(=O)c1cccc(F)c1)c1ccc2oc3ccccc3c2c1` [Example 35, 2-Dibenzofurancarboxylic acid 2-[(3-fluorophenyl)sulfonyl]hydrazide] had a melting point of 222.6 to 223.3 °C. Further, the IC50 in data set [1] worked out at 3.57 µM. In addition, the IC50 on rat BCAT cytosolic form was 0.31 µM.

With `Cc1ccc(F)cc1S(=O)(=O)NNC(=O)c1ccc2oc3ccccc3c2c1` [Example 36, 2-Dibenzofurancarboxylic acid 2-[(5-fluoro-2-methylphenyl)sulfonyl]hydrazide], the melting point was in the range of 210.1 to 210.5 °C. In addition, the IC50 in data set [1] is 17.5 µM and 18.2 µM. Further, on rat BCAT cytosolic form, the IC50 stood at 1.1 µM.

With `O=C(NNS(=O)(=O)c1ccc(F)c(F)c1)c1ccc2oc3ccccc3c2c1` [Example 37, 2-Dibenzofurancarboxylic acid 2-[(3,4-difluorophenyl)sulfonyl]hydrazide], the melting point fell in the range of 210.1 to 210.5 °C. Besides, the IC50 in data set [1] was determined as 41.3 µM. For the same molecule, on rat BCAT cytosolic form, the IC50 worked out at 3.5 µM.

Molecule `O=C(NNS(=O)(=O)c1ccc(F)c(Cl)c1)c1ccc2oc3ccccc3c2c1` [Example 38, 2-Dibenzofurancarboxylic acid 2-[(3-chloro-4-fluorophenyl)sulfonyl]hydrazide] gave a melting point of 210.8 to 211.6 °C. For the same molecule, the IC50 in data set [1] worked out at 29.9 µM. The IC50 at rat BCAT cytosolic form is 0.77 µM and 0.61 µM.

`COc1cccc(S(=O)(=O)NNC(=O)c2ccc3oc4ccccc4c3c2)c1` [Example 39, 2-Dibenzofurancarboxylic acid 2-[(3-methoxyphenyl)sulfonyl]hydrazide]: the melting point is 199.5 to 200.5 °C. For the same molecule, in data set [1], the IC50 came to 2.29 µM. The IC50 at rat BCAT cytosolic form amounted to 0.21 µM.

Regarding `O=C(NNS(=O)(=O)c1cccc(F)c1)c1cc2cc(Cl)ccc2o1` [Example 40, 2-Benzofurancarboxylic acid, 5-chloro-2-[(3-fluorophenyl)sulfonyl]hydrazide], the melting point was in the range of 174.4 to 174.7 °C. Moreover, the IC50 in data set [1] is 4.86 µM and 8.8 µM. The IC50 on rat BCAT cytosolic form was 1 µM.

The molecule `O=C(NNS(=O)(=O)c1ccc(F)c(F)c1)c1cc2cc(Cl)ccc2o1` [Example 41, 2-Benzofurancarboxylic acid, 5-chloro-2-[(3,4-difluorophenyl)sulfonyl]hydrazide] gave a melting point of 193.8 to 195 °C. Moreover, the IC50 in data set [1] amounted to 28.8 µM. Moreover, on rat BCAT cytosolic form, the IC50 turned out to be 14.5 µM.

With `O=C(NNS(=O)(=O)c1ccccc1Cl)c1cc2cc(Cl)ccc2o1` [Example 42, 2-Benzofurancarboxylic acid, 5-chloro-2-[(2-chlorophenyl)sulfonyl]hydrazide], the melting point fell in the range of 200.3 to 200.5 °C. Further, the IC50 in data set [1] was 5.3 µM and 10.4 µM. Moreover, the IC50 at rat BCAT cytosolic form worked out at 1.3 µM.

`O=C(NNS(=O)(=O)c1cccc(Cl)c1)c1cc2cc(Cl)ccc2o1` [Example 43, 2-Benzofurancarboxylic acid, 5-chloro-2-[(3-chlorophenyl)sulfonyl]hydrazide] registered a melting point of 202.9 to 205.2 °C. In addition, the IC50 in data set [1] was 1.8 µM. The IC50 at rat BCAT cytosolic form is 0.47 µM.

Consider `O=C(NNS(=O)(=O)c1cccc(Br)c1)c1cc2cc(Cl)ccc2o1` [Example 45, 2-Benzofurancarboxylic acid, 5-chloro-2-[(3-bromophenyl)sulfonyl]hydrazide], for which the melting point was 218.1 to 220 °C. Also, the IC50 in data set [1] amounted to 2.29 µM. In addition, the IC50 on rat BCAT cytosolic form came to 0.21 µM.

`Cc1cccc(S(=O)(=O)NNC(=O)c2cc3cc(Cl)ccc3o2)c1` [Example 47, 2-Benzofurancarboxylic acid, 5-chloro-2-[(3-methylphenyl)sulfonyl]hydrazide] had a melting point of 201.2 to 201.6 °C. The IC50 in data set [1] is 0.84 µM and 1.47 µM. Moreover, the IC50 on rat BCAT cytosolic form was 0.15 µM and 0.2 µM.

Turning to `COc1cccc(S(=O)(=O)NNC(=O)c2cc3cc(Cl)ccc3o2)c1` [Example 48, 2-Benzofurancarboxylic acid, 5-chloro-2-[(3-methoxyphenyl)sulfonyl]hydrazide], the melting point lay in the range of 204.3 to 204.6 °C. In addition, in data set [1], the IC50 is 4.21 µM and 7.6 µM. In addition, the IC50 at rat BCAT cytosolic form worked out at 0.91 µM.

Take `Cc1c(Cl)cccc1S(=O)(=O)NNC(=O)c1cc2cc(Cl)ccc2o1` [Example 49, 2-Benzofurancarboxylic acid, 5-chloro-2-[(3-chloro-2-methylphenyl)sulfonyl]-hydrazide]: the melting point was 198.2 to 198.5 °C. The IC50 in data set [1] was 1.75 µM and 3.6 µM. The IC50 at rat BCAT cytosolic form is 3.1 µM and 4 µM.

Consider `Cc1ccc(F)cc1S(=O)(=O)NNC(=O)c1cc2cc(Cl)ccc2o1` [Example 50, 2-Benzofurancarboxylic acid, 5-chloro-2-[(5-fluoro-2-methylphenyl)sulfonyl]-hydrazide], for which the melting point lay in the range of 209.6 to 211.2 °C. In addition, in data set [1], the IC50 was 5.18 µM and 9.1 µM. Moreover, the IC50 on rat BCAT cytosolic form is 1.3 µM.

In turn, `O=C(NNS(=O)(=O)c1ccccc1OC(F)(F)F)c1cc2cc(Cl)ccc2o1` [Example 52, 2-Benzofurancarboxylic acid, 5-chloro-2-[[2-(trifluoromethoxy)phenyl]sulfonyl]-hydrazide] displayed a melting point of 218.2 to 219.8 °C. Besides, the IC50 in data set [1] stood at 2.19 µM. For the same molecule, at rat BCAT cytosolic form, the IC50 came to 0.3 µM.

For the molecule `COc1ccc2oc(C(=O)NNS(=O)(=O)c3ccccc3)c(OC)c2c1` [Example 58, 2-Benzofurancarboxylic acid, 3,5-dimethoxy-, 2-(phenylsulfonyl)hydrazide], the melting point lay within 172.2 to 173.8 °C. For the same molecule, in data set [1], the IC50 stood at 3.57 µM. Also, the IC50 on rat BCAT cytosolic form amounted to 0.22 µM.

`COc1ccc2c(OC)c(C(=O)NNS(=O)(=O)c3ccccc3)oc2c1` [Example 59, 2-Benzofurancarboxylic acid, 3,6-dimethoxy-, 2-(phenylsulfonyl)hydrazide] had a melting point of 174.8 to 175.2 °C. Further, in data set [1], the IC50 was determined as 3.42 µM. Besides, the IC50 at rat BCAT cytosolic form was 0.12 µM.

`CCOc1c(C(=O)NNS(=O)(=O)c2ccccc2)oc2ccc(-c3ccccc3)cc12` [Example 66, 2-Benzofurancarboxylic acid, 3-ethoxy-5-phenyl-, 2-(phenylsulfonyl)hydrazide] gave a melting point of 184.3 to 184.6 °C. Besides, the IC50 in data set [1] came out at 1.38 µM. Further, the IC50 at rat BCAT cytosolic form is 0.15 µM.

`O=C(NNS(=O)(=O)c1ccccc1)c1cc2cc(Cl)cc(Cl)c2o1` [Example 69, 2-Benzofurancarboxylic acid, 5,7-dichloro 2-(phenylsulfonyl)sulfonyl hydrazide] displayed a melting point of 216.4 to 218.1 °C. For the same molecule, the IC50 in data set [1] was 3.86 µM. The IC50 on rat BCAT cytosolic form turned out to be 0.05 µM.

For `O=C(NNS(=O)(=O)c1ccccc1C(F)(F)F)c1cc2cc(Cl)cc(Cl)c2o1` [Example 70], the melting point lay within 245.6 to 247.6 °C. The IC50 in data set [1] was 11.6 µM. The IC50 at rat BCAT cytosolic form is 0.43 µM.
